Experimental data from patent publication US8546451B2 (priority 2005, dated 2013).
Where “and” joins values, the source holds several entries; their conditions need not be identical. Equal entries are not always repeated.

How the values were obtained:
[1] = system: estrogen related receptor (ERR-α, ERR-β and ERR-γ); experiment: DES versus Compound IV, ERR transactivation (FIG. 12C); type: cell-based
[2] = biological target: glucocorticoid receptor (GR) (Rattus norvegicus (Rat), UniProt P06536); experiment: Cross-reactivity transcriptional activation assay, GR; type: cell-based; details: agonist and antagonist modes
glucocorticoid receptor (GR), sequence (P06536 whole entry, canonical isoform): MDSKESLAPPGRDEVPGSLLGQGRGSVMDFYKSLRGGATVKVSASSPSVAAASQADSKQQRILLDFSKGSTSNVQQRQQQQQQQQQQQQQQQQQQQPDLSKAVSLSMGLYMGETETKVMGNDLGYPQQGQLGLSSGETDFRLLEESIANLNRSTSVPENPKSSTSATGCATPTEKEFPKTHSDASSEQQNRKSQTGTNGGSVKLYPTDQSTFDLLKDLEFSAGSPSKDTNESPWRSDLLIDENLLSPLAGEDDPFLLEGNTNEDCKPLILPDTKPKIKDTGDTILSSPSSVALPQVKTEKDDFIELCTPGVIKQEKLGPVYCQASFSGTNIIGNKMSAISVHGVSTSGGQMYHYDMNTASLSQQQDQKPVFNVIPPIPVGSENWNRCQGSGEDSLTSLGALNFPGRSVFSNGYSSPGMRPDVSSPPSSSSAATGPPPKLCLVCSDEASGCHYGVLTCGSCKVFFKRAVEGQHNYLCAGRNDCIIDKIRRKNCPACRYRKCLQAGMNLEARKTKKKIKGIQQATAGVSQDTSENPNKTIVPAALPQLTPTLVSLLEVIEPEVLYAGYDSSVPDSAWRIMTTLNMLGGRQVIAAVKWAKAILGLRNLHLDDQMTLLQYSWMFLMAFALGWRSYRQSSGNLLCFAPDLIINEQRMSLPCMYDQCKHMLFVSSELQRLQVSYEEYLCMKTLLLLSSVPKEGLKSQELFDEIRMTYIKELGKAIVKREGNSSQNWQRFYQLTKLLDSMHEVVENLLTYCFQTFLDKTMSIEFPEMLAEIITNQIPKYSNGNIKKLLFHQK
Description: (§1) Compound IV was screened for cross-reactivity against rat isoforms of glucocorticoid receptor (GR), mineralocorticoids receptor (MR), progesterone receptor (PR), androgen receptor (AR) and human isoforms of farnesoid X receptor (FXR), liver X receptor (LXR), peroxisome proliferator-activated receptors (PPAR-α and PPAR-γ), and retinoid X receptor (RXR-α) in both agonist and antagonist modes in transcriptional activation assays.

[3] = biological target: mineralocorticoids receptor (MR) (Rattus norvegicus (Rat), UniProt P22199); experiment: Cross-reactivity transcriptional activation assay, MR; type: cell-based; details: agonist and antagonist modes
mineralocorticoids receptor (MR), sequence (P22199 whole entry): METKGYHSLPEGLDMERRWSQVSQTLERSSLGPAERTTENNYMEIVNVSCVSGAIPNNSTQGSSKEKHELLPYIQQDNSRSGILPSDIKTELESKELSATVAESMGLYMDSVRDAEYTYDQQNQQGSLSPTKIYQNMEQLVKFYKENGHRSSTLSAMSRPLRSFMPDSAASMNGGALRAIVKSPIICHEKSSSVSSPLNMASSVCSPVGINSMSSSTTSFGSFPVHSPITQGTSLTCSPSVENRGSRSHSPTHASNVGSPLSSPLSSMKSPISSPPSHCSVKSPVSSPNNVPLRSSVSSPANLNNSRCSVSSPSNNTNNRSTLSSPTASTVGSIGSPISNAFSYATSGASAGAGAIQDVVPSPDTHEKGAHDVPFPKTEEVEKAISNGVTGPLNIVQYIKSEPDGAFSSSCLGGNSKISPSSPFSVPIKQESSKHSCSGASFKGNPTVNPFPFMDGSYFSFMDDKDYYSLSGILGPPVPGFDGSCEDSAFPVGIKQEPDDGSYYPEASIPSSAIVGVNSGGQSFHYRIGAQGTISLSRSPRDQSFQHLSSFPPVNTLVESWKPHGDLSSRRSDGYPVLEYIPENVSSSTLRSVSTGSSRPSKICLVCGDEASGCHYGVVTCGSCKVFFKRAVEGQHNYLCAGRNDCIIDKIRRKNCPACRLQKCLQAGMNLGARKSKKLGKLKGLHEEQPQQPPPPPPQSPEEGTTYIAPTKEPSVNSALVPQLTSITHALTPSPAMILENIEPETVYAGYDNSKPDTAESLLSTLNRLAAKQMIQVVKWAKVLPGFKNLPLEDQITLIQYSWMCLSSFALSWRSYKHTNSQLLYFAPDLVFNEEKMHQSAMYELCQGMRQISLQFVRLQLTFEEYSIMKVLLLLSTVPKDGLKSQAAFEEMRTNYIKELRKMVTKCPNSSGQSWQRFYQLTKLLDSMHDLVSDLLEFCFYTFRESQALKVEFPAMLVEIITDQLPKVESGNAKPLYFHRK
Description: as §1

[4] = Renal function after single oral dose; type: in vivo
androgen receptor (AR) = androgen receptor (AR) (Rattus norvegicus (Rat), UniProt P15207); experiment: Cross-reactivity transcriptional activation assay, AR; type: cell-based; details: agonist and antagonist modes
androgen receptor (AR), sequence (P15207 whole entry S389L): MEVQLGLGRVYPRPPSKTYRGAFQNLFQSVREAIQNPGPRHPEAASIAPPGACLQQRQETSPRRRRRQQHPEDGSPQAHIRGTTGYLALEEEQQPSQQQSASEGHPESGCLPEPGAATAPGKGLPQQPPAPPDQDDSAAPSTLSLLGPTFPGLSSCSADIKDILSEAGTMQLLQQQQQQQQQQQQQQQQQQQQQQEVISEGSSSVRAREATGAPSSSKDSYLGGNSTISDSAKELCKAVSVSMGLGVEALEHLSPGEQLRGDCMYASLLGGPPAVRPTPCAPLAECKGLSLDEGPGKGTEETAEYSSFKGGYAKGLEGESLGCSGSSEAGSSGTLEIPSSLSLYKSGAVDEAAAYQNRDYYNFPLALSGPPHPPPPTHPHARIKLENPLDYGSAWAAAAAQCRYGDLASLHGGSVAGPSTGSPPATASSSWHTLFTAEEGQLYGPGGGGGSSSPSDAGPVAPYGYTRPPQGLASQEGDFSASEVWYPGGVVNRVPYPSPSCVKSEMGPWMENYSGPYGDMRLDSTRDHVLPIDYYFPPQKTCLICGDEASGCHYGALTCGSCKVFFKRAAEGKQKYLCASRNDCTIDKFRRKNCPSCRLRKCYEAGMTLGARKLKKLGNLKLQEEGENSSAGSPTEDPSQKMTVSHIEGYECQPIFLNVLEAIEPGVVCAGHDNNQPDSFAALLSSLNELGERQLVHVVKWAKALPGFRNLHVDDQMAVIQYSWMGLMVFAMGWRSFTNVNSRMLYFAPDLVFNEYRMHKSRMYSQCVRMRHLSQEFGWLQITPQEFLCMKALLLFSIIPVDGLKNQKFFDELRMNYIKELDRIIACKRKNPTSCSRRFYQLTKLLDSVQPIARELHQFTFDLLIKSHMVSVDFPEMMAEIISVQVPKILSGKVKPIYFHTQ
Description: as §1

[5] = Preliminary oral pharmacokinetics in monkeys; type: in vivo
Protocol: Formulations using polyethylene glycol 300 (PEG300) generally produced higher exposures than microemulsions prepared in Tween 80 diluted in deionized water. […] Importantly, in dogs the exposure in the male 30 mg/kg PEG300 oral dose group exceeded the exposure necessary to produce the maximal effect on prostate reduction in the rat model of LH suppression.

[6] = system: LH, FSH, testosterone and androgen-dependent organ weights; experiment: Suppression of LH and testosterone hormone levels in intact and ORX rats; type: in vivo, Sprague-Dawley rats; details: for Testosterone levels: LLOQ 0.08 ng/mL
CYP2B6 = experiment: CYP450 induction in vitro, CYP2B6; type: in vitro ADME
[7] = biological target: ER-β ligand binding domain (LBD) (Homo sapiens (Human), UniProt Q92731); experiment: ER-β competitive radioligand binding assay with [3H]E2; details: read-out: ER-β Ki
ER-β ligand binding domain (LBD), sequence (Q92731 264-498, species assumed): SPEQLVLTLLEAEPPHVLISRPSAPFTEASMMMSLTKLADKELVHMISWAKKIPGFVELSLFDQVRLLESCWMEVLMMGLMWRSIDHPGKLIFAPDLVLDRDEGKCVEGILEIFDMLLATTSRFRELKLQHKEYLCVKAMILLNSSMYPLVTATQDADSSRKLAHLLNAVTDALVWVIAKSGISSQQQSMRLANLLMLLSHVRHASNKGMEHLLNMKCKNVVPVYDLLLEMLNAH
Protocol: Following incubation, plates were harvested with GF/B filters on the Unifilter-96 Harvester (PerkinElmer) and washed three times with ice-cold buffer B (50 mM Tris, pH 7.2). The filter plates were dried at room temperature, then 35 μl Microscint-O cocktail was added to each well and the filter plates were sealed with TopSeal-A. Radioactivity was counted in a TopCount® NXT Microplate Scintillation Counter using the settings for ^3H in Microscint cocktail (PerkinElmer).
E2 (determined by incubating with 10^−6 M unlabeled E2) and expressing it as a percentage of the specific binding in the absence of test compound.

liver X receptor (LXR) = experiment: Cross-reactivity transcriptional activation assay, LXR; type: cell-based, human; details: agonist and antagonist modes
Description: as §1

[8] = system: circulating androgen (primarily testosterone and dihydrotestosterone); experiment: Suppression and recovery of androgen levels in intact male monkeys; type: in vivo, Cynomolgus monkeys; design: circulating androgen levels: unit not given here
Protocol: The effect of Compound IV on suppression and recovery of testosterone levels in intact male monkeys was evaluated in conjunction with an oral pharmacokinetic study. Three treatment naïve male Cynomolgus monkeys (2 to 3 years old) were administered Compound IV at 30 mg/kg daily by oral gavage for 7 consecutive days. Blood samples were collected and divided into serum and plasma for testosterone and Compound IV quantitative measurements, respectively.

CYP1A2 = experiment: CYP450 induction in vitro, CYP1A2; type: in vitro ADME
[9] = Intact, 0.3 mg/kg per day s.c., 14 days
[10] = Intact, 1 mg/kg per day s.c., 14 days
[11] = Intact, 3 mg/kg per day s.c., 14 days
[12] = Intact, 10 mg/kg per day s.c., 14 days
[13] = Intact, 30 mg/kg per day s.c., 14 days
[14] = ORX, 0.3 mg/kg per day s.c., 14 days
[15] = ORX, 1 mg/kg per day s.c., 14 days
[16] = ORX, 3 mg/kg per day s.c., 14 days
[17] = ORX, 10 mg/kg per day s.c., 14 days
[18] = ORX, 30 mg/kg per day s.c., 14 days

Q: For `O=C(c1ccc(O)c(F)c1)N(c1ccc(O)cc1)c1ccc(F)cc1` [Compound IV, 3-fluoro-N-(4-fluorophenyl)-4-hydroxy-N-(4-hydroxyphenyl)benzamide], which “effect on ERR transactivation” value [1] is on record?
A: failed to crossreact

Q: And the “agonist or antagonist activity” value [2]?
A: did not display any agonist or antagonist activity

Q: And the “agonist or antagonist activity” value [3]?
A: did not display any agonist or antagonist activity

Q: And the “effects on renal function” value ([4]; highest dose tested (100 mg/kg))?
A: increased urine volume output and urinary excretion of potassium and chloride

Q: What about the “effects on renal function” value ([4]; single oral dose of up to 30 mg/kg) of the same molecule?
A: No significant effects

Q: And the “agonist or antagonist activity” value (androgen receptor (AR))?
A: did not display any agonist or antagonist activity

Q: What about the “absorption following oral dosing” value [5] of the same molecule?
A: rapidly absorbed

Q: And the oral bioavailability ([5]; preliminary)?
A: approximates or exceeds that in dogs

Q: What about the FSH [6, 9] of the same molecule?
A: 17.3±6.4 ng/mL and 17.3^b ng/mL

Q: And the LH [6, 9]?
A: 0.863±0.384 ng/mL and 0.863^b ng/mL

Q: What about the “Levator Ani Muscle weight” value [6, 9] of the same molecule?
A: 86.9±10.0 % of Intact and 86.9^a,b % of Intact

Q: What about the Prostate weight [6, 9] of the same molecule?
A: 84.0±19.2 % of Intact and 84.0^b % of Intact

Q: What about the “Seminal Vesicles weight” value [6, 9] of the same molecule?
A: 76.2±7.8 % of Intact and 76.2^a,b % of Intact

Q: And the Testosterone levels [6, 9]?
A: 2.6 ± 1.7 ng/mL

Q: What about the FSH [6, 10] of the same molecule?
A: 15.7±7.3 ng/mL and 15.7^b ng/mL

Q: What about the LH [6, 10] of the same molecule?
A: 0.704±0.530 ng/mL and 0.704^b ng/mL

Q: And the “Levator Ani Muscle weight” value [6, 10]?
A: 82.1±12.1 % of Intact and 82.1^a,b % of Intact

Q: And the Prostate weight [6, 10]?
A: 75.2±20.7 % of Intact and 75.2^b % of Intact

Q: What about the “Seminal Vesicles weight” value [6, 10] of the same molecule?
A: 66.3±27.2 % of Intact and 66.3^a,b % of Intact

Q: And the Testosterone levels [6, 10]?
A: 1.6 ± 1.0 ng/mL

Q: And the FSH [6, 11]?
A: 18.4±7.7 ng/mL and 18.4^b ng/mL

Q: What about the LH [6, 11] of the same molecule?
A: 0.395±0.302 ng/mL and 0.395^a,b ng/mL

Q: And the “Levator Ani Muscle weight” value [6, 11]?
A: 65.2±4.4 % of Intact and 65.2^a % of Intact

Q: What about the Prostate weight [6, 11] of the same molecule?
A: 68.2±8.1 % of Intact and 68.2^a,b % of Intact

Q: And the “Seminal Vesicles weight” value [6, 11]?
A: 51.8±28.5 % of Intact and 51.8^a,b % of Intact

Q: And the Testosterone levels [6, 11]?
A: 0.7 ± 0.4 ng/mL

Q: And the FSH [6, 12]?
A: 9.2±4.0 ng/mL and 9.25^a,b ng/mL

Q: What about the LH [6, 12] of the same molecule?
A: 0.226±0.165 ng/mL and 0.226^a,b ng/mL

Q: And the “Levator Ani Muscle weight” value [6, 12]?
A: 57.8±11.2 % of Intact and 57.8^a % of Intact

Q: What about the Prostate weight [6, 12] of the same molecule?
A: 45.1±20.0 % of Intact and 45.1^a,b % of Intact

Q: And the “Seminal Vesicles weight” value [6, 12]?
A: 19.1±7.0 % of Intact and 19.1^a % of Intact

Q: What about the Testosterone levels [6, 12] of the same molecule?
A: BLOQ

Q: And the FSH [6, 13]?
A: 6.3±1.8 ng/mL and 6.25^a,b ng/mL

Q: And the LH [6, 13]?
A: 0.236±0.176 ng/mL and 0.236^a,b ng/mL

Q: What about the “Levator Ani Muscle weight” value [6, 13] of the same molecule?
A: 58.1±4.7 % of Intact and 58.1^a % of Intact

Q: And the Prostate weight [6, 13]?
A: 43.6±8.8 % of Intact and 43.6^a,b % of Intact

Q: What about the “Seminal Vesicles weight” value [6, 13] of the same molecule?
A: 17.9±3.3 % of Intact and 17.9^a % of Intact

Q: And the Testosterone levels [6, 13]?
A: BLOQ

Q: What about the FSH [6, 14] of the same molecule?
A: 115±17 ng/mL and 116^a ng/mL

Q: And the LH [6, 14]?
A: 15.4±2.9 ng/mL and 15.4^a ng/mL

Q: What about the “Levator Ani Muscle weight” value [6, 14] of the same molecule?
A: 54.5±6.6 % of Intact and 54.5^a % of Intact

Q: What about the Prostate weight [6, 14] of the same molecule?
A: 19.0±4.2 % of Intact and 19.0^a,b % of Intact

Q: And the “Seminal Vesicles weight” value [6, 14]?
A: 12.2±1.3 % of Intact and 12.2^a % of Intact

Q: What about the FSH [6, 15] of the same molecule?
A: 114±22 ng/mL and 114^a ng/mL

Q: And the LH [6, 15]?
A: 13.5±2.2 ng/mL and 13.5^a ng/mL

Q: And the “Levator Ani Muscle weight” value [6, 15]?
A: 49.6±7.0 % of Intact and 49.6^a % of Intact

Q: What about the Prostate weight [6, 15] of the same molecule?
A: 17.4±3.4 % of Intact and 17.4^a % of Intact

Q: And the “Seminal Vesicles weight” value [6, 15]?
A: 16.6±5.4 % of Intact and 16.6^a % of Intact

Q: And the FSH [6, 16]?
A: 65.2±31.9 ng/mL and 65.2^a ng/mL

Q: And the LH [6, 16]?
A: 6.5 ± 5.6 ng/mL and 6.5 ng/mL

Q: What about the “Levator Ani Muscle weight” value [6, 16] of the same molecule?
A: 53.6±10.0 % of Intact and 53.6^a % of Intact

Q: What about the Prostate weight [6, 16] of the same molecule?
A: 19.6±6.7 % of Intact and 19.6^a % of Intact

Q: And the “Seminal Vesicles weight” value [6, 16]?
A: 16.5±4.8 % of Intact and 16.5^a % of Intact

Q: What about the FSH [6, 17] of the same molecule?
A: 27.6±8.2 ng/mL and 27.6^b ng/mL

Q: And the LH [6, 17]?
A: 0.425±0.135 ng/mL and 0.425^a,b ng/mL

Q: What about the “Levator Ani Muscle weight” value [6, 17] of the same molecule?
A: 51.1±4.9 % of Intact and 51.1^a % of Intact

Q: What about the Prostate weight [6, 17] of the same molecule?
A: 22.9±5.4 % of Intact and 22.9^a,b % of Intact

Q: What about the “Seminal Vesicles weight” value [6, 17] of the same molecule?
A: 13.3±1.9 % of Intact and 13.3^a % of Intact

Q: What about the FSH [6, 18] of the same molecule?
A: 15.1±4.1 ng/mL and 15.1^b ng/mL

Q: What about the LH [6, 18] of the same molecule?
A: 0.368±0.119 ng/mL and 0.368^a,b ng/mL

Q: What about the “Levator Ani Muscle weight” value [6, 18] of the same molecule?
A: 49.2±4.2 % of Intact and 49.2^a,b % of Intact

Q: What about the Prostate weight [6, 18] of the same molecule?
A: 20.6±2.1 % of Intact and 20.6^a,b % of Intact

Q: And the “Seminal Vesicles weight” value [6, 18]?
A: 12.9±2.1 % of Intact and 12.9^a % of Intact

Q: And the Testosterone levels ([6]; ORX, all treated groups (0.3-30 mg/kg per day))?
A: BLOQ

Q: What about the “doses that significantly suppressed LH levels” value ([6]; intact and ORX animals, vs respective controls) of the same molecule?
A: ≥ 10 mg/kg per day

Q: And the “daily doses with statistically significant LH reductions” value ([6]; intact animals)?
A: ≥ 3 mg/kg

Q: And the “doses with significant FSH reductions” value ([6]; intact animals)?
A: ≥ 10 mg/kg/day

Q: What about the “doses with significant testosterone reductions” value ([6]; intact animals) of the same molecule?
A: ≥ 3 mg/kg per day

Q: And the “suppression of serum testosterone” value ([6]; intact male rats, 3, 10 and 300 mg/kg, after 24 h, 72 h and 168 h (FIG. 9))?
A: Rapid and potent suppression

Q: What about the “induction of CYP2B6” value (CYP2B6) of the same molecule?
A: does not induce

Q: What about the Ki [7] of the same molecule?
A: 15.2 ± 4.1 nM

Q: What about the “agonist or antagonist activity” value (liver X receptor (LXR)) of the same molecule?
A: did not display any agonist or antagonist activity

Q: And the “decrease of circulating androgen levels compared to baseline” value ([8]; 30 mg/kg daily oral gavage for 7 days)?
A: up to 47%

Q: What about the circulating androgen levels ([8]; Day 2, 30 mg/kg daily oral gavage, mean±SEM) of the same molecule?
A: 997±104

Q: What about the circulating androgen levels ([8]; Day 6, 30 mg/kg daily oral gavage, mean±SEM) of the same molecule?
A: 852±136

Q: What about the circulating androgen levels ([8]; after 18-day drug-free recovery period) of the same molecule?
A: 1757.7±369.5

Q: What about the “induction of CYP1A2” value (CYP1A2) of the same molecule?
A: does not induce
